Reference: patent publication US10709709B2, “Substituted carbonucleoside derivatives useful as anticancer agents” (Pfizer Inc., priority 2016, dated 2020)

Columns and labels:
[1] = target: PRMT5/MEP50 protein complex (Homo sapiens (Human), UniProt O14744); assay: PRMT5 biochemical assay (3H-SAM methylation of H4(1-21) peptide, filter plate scintillation); conditions: 10 nM PRMT5/MEP50 complex, 200 nM H4(1-21) peptide, 1 uM SAM, 25 minute incubation at room temperature
In short: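 Human PRMT5/MEP50 complex (10 nM) methylating H4(1-21) peptide (200 nM) with 3H/unlabelled SAM (1 uM final) in pH 8.5 Tris buffer, 25 min at room temperature. Stopped with TCA, 3H-peptide captured on filter plates and scintillation-counted. IC50 from 4-parameter fit.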

[2] = system: A549 lung adenocarcinoma cells; assay: A549 proliferation assay (Cell Titer Glo); type: cell-based; conditions: Homo sapiens, 7 days with compound, cell viability by Cell Titer Glo (ATP)
Procedure: A549 lung adenocarcinoma cells (American Type Culture Collection) were maintained in DMEM growth media (Life Technologies) supplemented with 10% v/v heat inactivated fetal bovine serum (Sigma) and cultured at 37° C., 5% CO2. Exponentially growing A549 cells were plated in 96-well black tissue culture treated plates (Corning) at a density of […] in a volume of 100 μl culture media and allowed to adhere overnight at 37° C., 5% CO2. The following day, compound plates were prepared by making nine-point 3.3-fold dilutions in DMSO with a top concentration of 10 mM. Compounds were further diluted in culture media and 11 μl was added to the cells (final top assay concentration was 10 μM and DMSO was 0.2%). Cells were incubated with compound at 37° C., 5% CO2 for 7 days with media and compound replacement on day 4. Cell viability was assayed on Day 7 by adding 100 μl Cell Titer Glo (Promega) reagent to the plate to measure the amount of ATP present in the cells. Luminescence was read using the Envision 2104 Multilabel Reader (Perkin Elmer). The 50% inhibitory concentration (IC50) was determined using a 4-parameter fit model normalized to the DMSO control in dose response.

PRMT5/MEP50 protein complex, sequence (O14744 other isoform, or with tags, fused parts or gaps): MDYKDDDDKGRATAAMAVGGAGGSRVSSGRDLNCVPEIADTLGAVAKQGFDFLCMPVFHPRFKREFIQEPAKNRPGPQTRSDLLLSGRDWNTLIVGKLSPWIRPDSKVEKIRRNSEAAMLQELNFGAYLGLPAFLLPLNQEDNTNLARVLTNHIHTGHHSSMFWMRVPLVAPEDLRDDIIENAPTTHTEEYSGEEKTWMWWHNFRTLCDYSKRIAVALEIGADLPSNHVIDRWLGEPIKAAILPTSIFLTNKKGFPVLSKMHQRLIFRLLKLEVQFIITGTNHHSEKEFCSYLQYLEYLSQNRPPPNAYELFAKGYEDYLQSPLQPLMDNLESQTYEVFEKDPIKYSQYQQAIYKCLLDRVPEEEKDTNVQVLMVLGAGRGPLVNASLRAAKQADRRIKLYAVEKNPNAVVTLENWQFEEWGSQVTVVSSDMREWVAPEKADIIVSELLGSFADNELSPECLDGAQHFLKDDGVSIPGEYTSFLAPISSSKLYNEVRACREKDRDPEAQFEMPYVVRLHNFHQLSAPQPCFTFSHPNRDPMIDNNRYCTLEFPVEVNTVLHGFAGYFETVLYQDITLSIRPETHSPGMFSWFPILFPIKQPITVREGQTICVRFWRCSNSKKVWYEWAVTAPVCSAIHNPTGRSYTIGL
PRMT5/MEP50 protein complex, sequence (Q9BQA1 whole entry partner): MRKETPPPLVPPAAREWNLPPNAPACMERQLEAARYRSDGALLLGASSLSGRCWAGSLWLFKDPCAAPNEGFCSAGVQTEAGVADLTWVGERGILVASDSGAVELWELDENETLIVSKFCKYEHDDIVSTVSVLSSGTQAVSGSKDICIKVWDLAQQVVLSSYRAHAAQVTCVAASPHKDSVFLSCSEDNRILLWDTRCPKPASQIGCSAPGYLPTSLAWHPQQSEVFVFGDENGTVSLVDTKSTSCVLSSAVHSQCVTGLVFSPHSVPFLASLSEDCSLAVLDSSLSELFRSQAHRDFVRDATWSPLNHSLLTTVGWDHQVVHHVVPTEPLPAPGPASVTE

Structure (SMILES) | IC50 [1] [nM] | IC50 ([2]; A549, 168 h) [nM] | IC50 ([2]; 168 h) [nM]
Nc1ncnc2c1c(F)cn2[C@@H]1C[C@H](Oc2cc(Br)c(F)c3c2CNCC3)[C@@H](O)[C@H]1O [Example 109, (1S,2S,3R,5S)-3-(4-amino-5-fluoro-7H-pyrrolo[2,3-d]pyrimidin-7-yl)-5-((6-bromo-5-fluoro-1,2,3,4-tetrahydroisoquinolin-8-yl)oxy)cyclopentane-1,2-diol] | 1 | 67 | 
CN1CCc2cccc(O[C@H]3C[C@@H](n4cc(F)c5c(N)ncnc54)[C@H](O)[C@@H]3O)c2C1 [Example 114, (1S,2S,3R,5S)-3-(4-amino-5-fluoro-7H-pyrrolo[2,3-d]pyrimidin-7-yl)-5-((2-methyl-1,2,3,4-tetrahydroisoquinolin-8-yl)oxy)cyclopentane-1,2-diol] | 4 | 3940 | 
Cc1ncnc2c1c(F)cn2[C@@H]1C[C@H](Oc2cccc3c2CNCC3)[C@@H](O)[C@H]1O [Example 117, (1S,2S,3R,5S)-3-(5-fluoro-4-methyl-7H-pyrrolo[2,3-d]pyrimidin-7-yl)-5-((1,2,3,4-tetrahydroisoquinolin-8-yl)oxy)cyclopentane-1,2-diol] | 5 | 7140 | 
O[C@@H]1[C@H](O)[C@@H](Oc2cccc3c2CNCC3)C[C@H]1n1ccc2cncnc21 [Example 118, (1S,2S,3R,5S)-3-(7H-pyrrolo[2,3-d]pyrimidin-7-yl)-5-((1,2,3,4-tetrahydroisoquinolin-8-yl)oxy)cyclopentane-1,2-diol] | 2 | 4840 | 
Cc1ncnc2c1c(F)cn2[C@@H]1C[C@H](Oc2cc(C#N)cc3c2CNCC3)[C@@H](O)[C@H]1O [Example 119, 8-(((1S,2S,3S,4R)-4-(5-fluoro-4-methyl-7H-pyrrolo[2,3-d]pyrimidin-7-yl)-2,3-dihydroxycyclopentyl)oxy)-1,2,3,4-tetrahydroisoquinoline-6-carbonitrile] | 1 | 556 | 
N#Cc1cc2c(c(O[C@H]3C[C@@H](n4cc(Br)c5c(N)ncnc54)[C@H](O)[C@@H]3O)c1)CNCC2 [Example 120, 8-(((1S,2S,3S,4R)-4-(4-amino-5-bromo-7H-pyrrolo[2,3-d]pyrimidin-7-yl)-2,3-dihydroxycyclopentyl)oxy)-1,2,3,4-tetrahydroisoquinoline-6-carbonitrile] | 1 | 442 | 
Cc1cn([C@@H]2C[C@H](Oc3ccc(F)c4c3CNCC4)[C@@H](O)[C@H]2O)c2ncnc(N)c12 [Example 121, (1S,2S,3R,5S)-3-(4-amino-5-methyl-7H-pyrrolo[2,3-d]pyrimidin-7-yl)-5-((5-fluoro-1,2,3,4-tetrahydroisoquinolin-8-yl)oxy)cyclopentane-1,2-diol] | 1 | 938 | 
Cc1cc2c(c(O[C@H]3C[C@@H](n4cc(C)c5c(N)ncnc54)[C@H](O)[C@@H]3O)c1)CNCC2 [Example 122, (1S,2S,3R,5S)-3-(4-amino-5-methyl-7H-pyrrolo[2,3-d]pyrimidin-7-yl)-5-((6-methyl-1,2,3,4-tetrahydroisoquinolin-8-yl)oxy)cyclopentane-1,2-diol] | 3 | 4480 | 
Cc1cc2c(c(O[C@H]3C[C@@H](n4cc(Br)c5c(N)ncnc54)[C@H](O)[C@@H]3O)c1)CNCC2 [Example 123, (1S,2S,3R,5S)-3-(4-amino-5-bromo-7H-pyrrolo[2,3-d]pyrimidin-7-yl)-5-((6-methyl-1,2,3,4-tetrahydroisoquinolin-8-yl)oxy)cyclopentane-1,2-diol] | 2 | 452 | 
Cc1cc2c(c(O[C@H]3C[C@@H](n4cc(F)c5c(C)ncnc54)[C@H](O)[C@@H]3O)c1)CNCC2 [Example 124, (1S,2S,3R,5S)-3-(5-fluoro-4-methyl-7H-pyrrolo[2,3-d]pyrimidin-7-yl)-5-((6-methyl-1,2,3,4-tetrahydroisoquinolin-8-yl)oxy)cyclopentane-1,2-diol] | 2 | 3830 | 
Nc1ncnc2c1c(Br)cn2[C@@H]1C[C@H](Oc2cc(F)c(F)c3c2CNCC3)[C@@H](O)[C@H]1O [Example 125, (1S,2S,3R,5S)-3-(4-amino-5-bromo-7H-pyrrolo[2,3-d]pyrimidin-7-yl)-5-((5,6-difluoro-1,2,3,4-tetrahydroisoquinolin-8-yl)oxy)cyclopentane-1,2-diol] | 1 | 637 | 
Cc1nc(N)c2c(F)cn([C@@H]3C[C@H](Oc4ccc(F)c5c4CNCC5)[C@@H](O)[C@H]3O)c2n1 [Example 126, (1S,2S,3R,5S)-3-(4-amino-5-fluoro-2-methyl-7H-pyrrolo[2,3-d]pyrimidin-7-yl)-5-((5-fluoro-1,2,3,4-tetrahydroisoquinolin-8-yl)oxy)cyclopentane-1,2-diol] | 1 | 498 | 
Nc1ncnc2c1c(Cl)cn2[C@@H]1C[C@H](Oc2cc(F)c(F)c3c2CNCC3)[C@@H](O)[C@H]1O [Example 128, (1S,2S,3R,5S)-3-(4-amino-5-chloro-7H-pyrrolo[2,3-d]pyrimidin-7-yl)-5-((5,6-difluoro-1,2,3,4-tetrahydroisoquinolin-8-yl)oxy)cyclopentane-1,2-diol] | 1 | 597 | 
Cc1cc2c(c(O[C@H]3C[C@@H](n4cc(Cl)c5c(N)ncnc54)[C@H](O)[C@@H]3O)c1)CNCC2 [Example 129, (1S,2S,3R,5S)-3-(4-amino-5-chloro-7H-pyrrolo[2,3-d]pyrimidin-7-yl)-5-((6-methyl-1,2,3,4-tetrahydroisoquinolin-8-yl)oxy)cyclopentane-1,2-diol] | 1 | 1040 | 
Nc1ncnc2c1c(Cl)cn2[C@@H]1C[C@H](Oc2cc(Cl)cc3c2CNCC3)[C@@H](O)[C@H]1O [Example 130, (1S,2S,3R,5S)-3-(4-amino-5-chloro-7H-pyrrolo[2,3-d]pyrimidin-7-yl)-5-((6-chloro-1,2,3,4-tetrahydroisoquinolin-8-yl)oxy)cyclopentane-1,2-diol] | 1 | 983 | 
Cc1ncc2c(F)cn([C@@H]3C[C@H](Oc4ccc(F)c5c4CNCC5)[C@@H](O)[C@H]3O)c2n1 [Example 132, (1S,2S,3S,5R)-3-((5-fluoro-1,2,3,4-tetrahydroisoquinolin-8-yl)oxy)-5-(5-fluoro-2-methyl-7H-pyrrolo[2,3-d]pyrimidin-7-yl)cyclopentane-1,2-diol] | 2 | 2750 | 
Nc1ncnc2c1c(Cl)cn2[C@@H]1C[C@H](Oc2ccc(F)c3c2CNCC3)[C@@H](O)[C@H]1O [Example 133, (1S,2S,3R,5S)-3-(4-amino-5-chloro-7H-pyrrolo[2,3-d]pyrimidin-7-yl)-5-((5-fluoro-1,2,3,4-tetrahydroisoquinolin-8-yl)oxy)cyclopentane-1,2-diol] | 1 | 443 | 
Nc1ncnc2c1c(Br)cn2[C@@H]1C[C@H](Oc2ccc(F)c3c2CNCC3)[C@@H](O)[C@H]1O [Example 134, (1S,2S,3R,5S)-3-(4-amino-5-bromo-7H-pyrrolo[2,3-d]pyrimidin-7-yl)-5-((5-fluoro-1,2,3,4-tetrahydroisoquinolin-8-yl)oxy)cyclopentane-1,2-diol] | 1 | 640 | 
Cc1ncnc2c1ccn2[C@@H]1C[C@H](Oc2ccc(F)cc2[C@H](C)N)[C@@H](O)[C@H]1O [Example 138, (1S,2S,3S,5R)-3-(2-((S)-1-aminoethyl)-4-fluorophenoxy)-5-(4-methyl-7H-pyrrolo[2,3-d]pyrimidin-7-yl)cyclopentane-1,2-diol] | 2 | 1480 | 
Cc1ncnc2c1ccn2[C@@H]1C[C@H](Oc2cc(Cl)c(F)cc2[C@H](C)N)[C@@H](O)[C@H]1O [Example 139, (1S,2S,3S,5R)-3-(2-((S)-1-aminoethyl)-5-chloro-4-fluorophenoxy)-5-(4-methyl-7H-pyrrolo[2,3-d]pyrimidin-7-yl)cyclopentane-1,2-diol] | 1 | 637 | 
Cc1ncnc2c1ccn2[C@@H]1C[C@H](Oc2cc(Cl)c(F)cc2[C@@H](C)N)[C@@H](O)[C@H]1O [Example 140, (1S,2S,3S,5R)-3-(2-((R)-1-aminoethyl)-5-chloro-4-fluorophenoxy)-5-(4-methyl-7H-pyrrolo[2,3-d]pyrimidin-7-yl)cyclopentane-1,2-diol] | 17 | 2380 | 
Cc1ncnc2c1ccn2[C@@H]1C[C@H](Oc2ccc(Cl)c(F)c2CN)[C@@H](O)[C@H]1O [Example 143, (1S,2S,3S,5R)-3-(2-(aminomethyl)-4-chloro-3-fluorophenoxy)-5-(4-methyl-7H-pyrrolo[2,3-d]pyrimidin-7-yl)cyclopentane-1,2-diol] | 6 | 1400 | 
Cc1ncnc2c1ccn2[C@@H]1C[C@H](Oc2ccc(Cl)cc2CCN)[C@@H](O)[C@H]1O [Example 146, (1S,2S,3S,5R)-3-(2-(2-aminoethyl)-4-chlorophenoxy)-5-(4-methyl-7H-pyrrolo[2,3-d]pyrimidin-7-yl)cyclopentane-1,2-diol] | 27 |  | 7070
